# Experimental data reported in paper PMC12629158, “Cytotoxic Activity of Opopanax hispidus (Friv.) Griseb.: Characterization of a New Chalcone‐type Compound” (Chemistry & Biodiversity, 2025).
# Entries after “also recorded” stand apart in the source; their conditions may differ. Like-named read-outs stand apart in the source and are kept apart here.
# Assays:
# MCF‐7 cells = test system: MCF‐7 cells; design: method as in earlier work; conditions: isolated from Sansevieria cylindrica; cited from earlier work
# Beas‐2B = assay: MTT cytotoxicity assay, Beas‐2B healthy cell line; assay type: cell-based, human; conditions: for IC50: Homo sapiens, BEAS-2B, 48 h, MTT, read-out: IC50 ± SEM, Beas‐2B
# Method: (§1) Adenocarcinomic human alveolar basal epithelial cell line (A549), human cervical cancer cell line (HeLa), human breast cancer cell line (MCF‐7), human hepatocellular carcinoma cell line (HepG2), and human bronchial epithelial cell line (BEAS‐2B) were used for the cytotoxicity test panel of crude extract. […] Therefore, A549 was used in further activity‐guided fractionation and isolation studies. The cell lines were cultured in Dulbecco's Modified Eagle Medium (DMEM) supplemented with 10% fetal bovine serum (FBS), 1% L‐glutamine, and 1% penicillin‐streptomycin. Cells were maintained in an incubator at 37°C under 5% CO2.
# (§2) MTT assay was used to determine the cytotoxic activity of the crude extract, subextracts, main fractions, and isolated compounds. MTT assay, called the “gold standard” of cell viability tests, is based on measuring metabolic activity. The cells reaching sufficient confluence were counted and plated in 96‐well plates (6 × 10^3 cells/well). After 24 h, cells were treated with five concentrations of the extracts (1–100 µg/mL), main fractions (1–100 µg/mL), or pure compounds (0.5–50 µM) in DMSO. Doxorubicin (10/3/1/0.3 µM) was used as a positive control. The plates were incubated with test materials for 48 h. After treatment, the supernatant was removed, and fresh medium and MTT solution (1 g/L in PBS) were added to each well. The cells were incubated for three h at 37°C. The resulting formazan crystals were dissolved in DMSO, and finally, the absorbance was detected at 570 nm using a spectrophotometer (SpectraMax i3x; Molecular Devices, San Jose, CA, USA). All data were collected from three independent experiments, and at least n = 6 data points were obtained. IC50 values were calculated as µg/mL for extracts or fractions and as µM for pure compounds.
# A549 [1] = assay: MTT cytotoxicity assay, A549; assay type: cell-based, human; conditions: for antiproliferative effect of isolated compounds (in words): A549 lung cancer cells, tested concentrations 0.5–50 µM; for IC50: Homo sapiens, A549, 48 h, MTT, 48 h, read-out: IC50 ± SEM, A549
# Method: as §1, §2
# A549 [2] = assay: Selectivity index (IC50 non‐cancerous cells / IC50 cancerous cells); assay type: cell-based, human; conditions: IC50 Beas‐2B / IC50 A549
# Method: The selectivity index (SI), which indicates the selectivity between cancer and normal cells, was calculated. The compounds with an SI greater than 1 are more likely to inhibit cancer cells than non‐cancerous cells. SI values were calculated by the formula of [(IC50 values of non‐cancerous cells)/(IC50 values of cancerous cells)].
# [3] = isolated compounds 0.5–50 µM (Table 4)
# [4] = doxorubicin positive control (Table 2 footnote)
# [5] = doxorubicin positive control (Table 3 footnote)
smiles,measurement,setting,value
"COc1c(O)ccc(C(=O)C(CO)Cc2ccc3c(c2)OCO3)c1O (stereo not shown) [2′,4′‐dihydroxy‐3′‐methoxy‐3,4‐methylenedioxy‐8‐hydroxymethylene dihydrochalcone]","IC50, cytotoxic effect against MCF‐7 cells",MCF‐7 cells,34 µg/mL
"O=C(O)c1cc2ccc(=O)oc2cc1O [Compound 1, umbelliferone 6‐carboxylic acid]",IC50,Beas‐2B; [3],> 50 µM
same,antiproliferative effect of isolated compounds (in words),A549 [1],did not show an antiproliferative effect; also recorded: did not show antiproliferative activity
same,IC50,A549 [1]; [3],> 50 µM
"O=c1ccc2ccc(O)cc2o1 [Compound 2, umbelliferone]",IC50,Beas‐2B; [3],> 50 µM
same,antiproliferative effect of isolated compounds (in words),A549 [1],did not show an antiproliferative effect; also recorded: did not show antiproliferative activity
same,IC50,A549 [1]; [3],> 50 µM
"COc1cc(O)c(C(=O)C[C@H](O)c2ccc(O)c(CC=C(C)C)c2)c(O)c1 [Compound 3, 2',6'‐dihydroxy‐4'‐methoxy‐3''‐(ɤ,ɤ‐dimethylallyl)‐4''‐hydroxy β‐hydroxydihydrochalcone]",IC50,Beas‐2B; [3],12 ± 1.5 µM
same,cytotoxicity against normal cells compared with doxorubicin (in words),Beas‐2B; normal cells (Beas‐2B),lower cytotoxicity against normal cells than doxorubicin
same,SI (selectivity index),A549 [2]; Table 4,0.87
same,antiproliferative effect of isolated compounds (in words),A549 [1],significant activity
same,IC50,A549 [1]; [3],13.7 ± 0.8 µM
"CC(C)(O)[C@H]1Cc2cc3ccc(=O)oc3cc2O1 [Compound 4, nodakenetin]",IC50,Beas‐2B; [3],> 50 µM
same,antiproliferative effect of isolated compounds (in words),A549 [1],did not show an antiproliferative effect; also recorded: did not show antiproliferative activity
same,IC50,A549 [1]; [3],> 50 µM
"COc1cccc2c1C(=O)c1c(O)c3c(c(O)c1C2=O)C[C@@](O)(C(=O)CO)C[C@@H]3O[C@H]1C[C@H](N)[C@H](O)[C@H](C)O1 [Dox, doxorubicin, reference compound]",IC50,Beas‐2B; [4],0.34 ± 0.02 µM
same,IC50,Beas‐2B; [5],0.07 ± 0.017 µM
same,IC50,Beas‐2B; [3],0.07 ± 0.017 µM
same,SI (selectivity index),A549 [2]; Table 3,0.12
same,IC50,A549 [1]; [4],0.82 ± 0.13 µM
same,IC50,A549 [1]; [5],0.59 ± 0.05 µM
same,IC50,A549 [1]; [3],0.59 ± 0.05 µM
